Where two headings read alike, the source gives them in different places.
Legend:
[1] = tested on: SDMA in human colon cancer cell line HCT116; experiment: Cell symmetric dimethylarginine (SDMA) test, In-cell Western, HCT116 (MTAP wild-type); format: cell-based; conditions: Homo sapiens, HCT-116, 96 h
In short: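 HCT116 cells treated 4 days at 37° C with compound, top concentration 6 μM, 1:4 dilutions, 6 points, versus DMSO. Fixed cells stained for SDMA with DRAQ5 normalisation; 800/700 nm ratio after background subtraction fitted by non-linear regression for IC50.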

[2] = tested on: HCT116-MTAP-knockout (−/−) cell strain; experiment: Tumor cell proliferation inhibition assay (CellTiter-Glo), HCT116-MTAP-knockout (-/-); format: cell-based; conditions: Homo sapiens, 120 h, HCT116-MTAP-knockout (−/−) cells, 5-day treatment
In short: (§1)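 Growth inhibition is evaluated from cellular ATP measured with CellTiter-Glo once cells have been treated for 5 days. Compounds are added 24 h after seeding as ten threefold dilutions starting at 10 μM, with a separate DMSO treatment group.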

Hut-78 cell strain = experiment: Tumor cell proliferation inhibition assay (CellTiter-Glo), Hut-78; format: cell-based; conditions: Homo sapiens, HuT78, 120 h, Hut-78 cells, 5-day treatment
In short: as §1

[3] = tested on: SDMA in HCT116-MTAP-knockout cell line; experiment: Cell symmetric dimethylarginine (SDMA) test, In-cell Western, HCT116-MTAP-knockout; format: cell-based; conditions: Homo sapiens, 96 h
[4] = tested on: HCT116-MTAP wild-type (+/+)-cell strain; experiment: Tumor cell proliferation inhibition assay (CellTiter-Glo), HCT116-MTAP wild-type (+/+); format: cell-based; conditions: Homo sapiens, 120 h, HCT116-MTAP wild-type (+/+) cells, 5-day treatment
In short: as §1

[5] = Saturation solubility of samples in FaSSIF solution; format: physicochemical; conditions: FaSSIF pH 6.5, room temperature overnight
Method: About 0.21 g of sodium hydroxide, about 2.24 g of sodium dihydrogen phosphate dihydrate, and 3.09 g of sodium chloride were weighed out and dissolved in 500 mL of water, and then the pH was adjusted to 6.5 with 1 N sodium hydroxide or 1 N hydrochloric acid. 112 mg of FaSSIF solid was weighed out and placed in a 50 mL volumetric flask, and the above buffer was added for dissolution, diluted to volume, mixed well, and left to stand at room temperature for 2 h or more.
• Test sample: about 1 mg of the test sample was taken, and 1 mL of FaSSIF solution was added. The mixture was stirred at room temperature overnight and centrifuged, and the supernatant was collected and injected for analysis. • Control substance solution: about 1.5 mg of the test sample was precisely weighed out and placed in a 50 mL volumetric flask, and DMF was added for dissolution, diluted to volume, and mixed well.
• Mobile phase A: 1000 mL of purified water was accurately weighed out, 1 mL of formic acid was added, and the mixture was mixed well and degassed with ultrasonic. • Mobile phase B: acetonitrile
The peak of the main component of the control substance and the peak of the test substance consistent with the retention time of the peak of the main component of the control substance were integrated, and the concentration thereof in the FaSSIF solution was calculated according to external standard method.

[6] = Pharmacokinetic test in mice (IV and PO); format: in vivo; conditions: BALB/c mice; for AUC / clearance / bioavailability / half-life / Vd: mouse, plasma; for half-life: read-out: T½ (converted); for Vd: read-out: Vz
[7] = IC50 score class, read-out: Cell 96 h SDMA Inhibition (HCT116-MTAP+/+) (score)
[8] = read-out: Cell 96 h SDMA inhibition (HCT116-MTAP+/+)
[9] = IC50 score, read-out: Tumor cell 5-day relative growth inhibition (HCT116-MTAP−/−) (nM), score
[10] = IC50 value, read-out: Tumor cell 5-day relative growth inhibition (HCT116-MTAP−/−)
[11] = IC50 score, read-out: Tumor cell 5-day relative growth inhibition (Hut-78) (nM), score
[12] = IC50 value, read-out: Tumor cell 5-day relative growth inhibition (Hut-78)
[13] = IC50 score class, read-out: Cell 96 h SDMA Inhibition (HCT116-MTAP−/−) (score)
[14] = read-out: Cell 96 h SDMA Inhibition (HCT116-MTAP−/−)
[15] = IC50 score, read-out: Tumor cell 5-day relative growth inhibition (HCT116-MTAP+/+) (nM), score
[16] = IC50 value, read-out: Tumor cell 5-day relative growth inhibition (HCT116-MTAP+/+)

Compound | IC50 [1, 7] [µM] | IC50 [1, 8] [µM] | IC50 [2, 9] [nM] | IC50 [2, 10] [nM] | IC50 (Hut-78 cell strain; [11]) [nM] | IC50 (Hut-78 cell strain; [12]) [nM] | IC50 [3, 13] [µM] | IC50 [3, 14] [µM] | IC50 [4, 15] [nM] | IC50 [4, 16] [nM] | FaSSIF (pH = 6.5) (μg/mL) [5] [μg/mL] | AUC ([6]; IV 2 mg/kg) [µM·h] | clearance ([6]; IV 2 mg/kg) [mL/min/kg] | bioavailability ([6]; IV 2 mg/kg, PO 10 mg/kg) [%] | half-life ([6]; IV 2 mg/kg) [h] | Vd ([6]; IV 2 mg/kg) [L/kg] | AUC ([6]; PO 10 mg/kg) [µM·h] | half-life ([6]; PO 10 mg/kg) [h] | AUC (in words) ([6]; summary of Table 7) | half-life (T½) (in words) ([6]; summary of Table 7) | other results
Cn1cc2c(n1)c(=O)n(-c1ccccc1Cl)c1nc(C(F)(F)F)ccc21 [Compound B182] | > 3 | > 3 | 500 to 2000 | 1860 | 500 to 2000 | 1220 | < 0.2 | 0.176 | ≥ 2000 | 7340 | 17.6 | – | – | – | – | – | – | – | – | – | –
Cc1ncccc1-n1c(=O)c2nn(C)cc2c2ccc(C(F)(F)F)nc21 (single isomer, unassigned) [Compound B180] | < 0.2 | 0.0992 | < 500 | 9.6 | < 500 | 17.4 | < 0.2 | 0.0103 | < 500 | 191 | – | 3.37 | 27.3 | 274 | 0.16 | 0.4 | 46.2 | 0.51 | – | – | –
Cn1cc2c(n1)c(=O)n(-c1cccnc1)c1cc(Cl)ccc21 [Compound B12] | 1 to 3 | 1.42 | < 500 | 383 | < 500 | 145 | 0.2 to 1 | 0.219 | 500 to 2000 | 1650 | – | 4.5 | 22.7 | – | 0.98 | 1.9 | 26.8 | 0.81 | – | – | –
Cn1cc2c(n1)c(=O)n(-c1cccc(O)c1)c1nc(C(F)(F)F)ccc21 [Compound B148] | 1 to 3 | 1.03 | – | – | < 500 | 135 | < 0.2 | 0.0492 | – | – | – | – | – | – | – | – | – | – | – | – | –
Cn1cc2c(n1)c(=O)n(-c1cccc3[nH]ncc13)c1cc(Cl)ccc21 [Compound B60] | 0.2 to 1 | 0.467 | < 500 | 12.6 | < 500 | 37.1 | < 0.2 | 0.0349 | 500 to 2000 | 1000 | 20.9 | 119 | 0.667 | 115 | 10 | 0.6 | 683 | 9 | relatively high | relatively long | –
O=c1c2n[nH]cc2c2ccc(C(F)(F)F)nc2n1-c1cccnc1 [Compound B178] | 1 to 3 | 1.06 | < 500 | 59.1 | < 500 | 184 | < 0.2 | 0.0371 | ≥ 2000 | ≥ 2000 | – | – | – | – | – | – | – | – | – | – | –
Cn1cc2c(n1)c(=O)n(-c1cccnc1C1CC1)c1cc(Cl)c(F)cc21 [Compound B340] | > 3 | > 10 | < 500 | 394 | – | – | < 0.2 | 0.012 | ≥ 2000 | > 10000 | 36 | 46 | 1.83 | – | 9.3 | 1.58 | 219 | 7.7 | – | – | –
Cn1cc2c(n1)c(=O)n(-c1cccc3[nH]ncc13)c1cc(Cl)c(C#N)cc21 [Compound B258] | > 3 | > 10 | < 500 | 235 | – | – | < 0.2 | 0.0676 | ≥ 2000 | > 10000 | 131 | 21.4 | 2.08 | – | 14.2 | 2.6 | – | – | relatively high | relatively long | tissue distribution (in words) ([6]; concluded from Vz, Table 7): good; Vz value (in words) ([6]; summary of Table 7): relatively high; bioavailability ([6]; IV 2 mg/kg, PO 5 mg/kg): 93%; AUC ([6]; PO 5 mg/kg): 80.7 µM·h; half-life ([6]; PO 5 mg/kg): 7.7 h
Cn1cc2c(n1)c(=O)n(-c1cccc3[nH]ncc13)c1cc(Cl)c(F)cc21 [Compound B257] | 1 to 3 | 2.16 | < 500 | 27.5 | – | – | < 0.2 | 0.07 | 500 to 2000 | 464 | 248 | 49.8 | 0.917 | 220 | 9.8 | 0.8 | 2110 | 34.2 | relatively high | relatively long | –
Cn1cc2c(n1)c(=O)n(-c1cccc3[nH]ncc13)c1nc(C(F)(F)F)ccc21 [Compound B181] | 0.2 to 1 | 0.48 | < 500 | 14.6 | < 500 | 36.5 | < 0.2 | 0.029 | 500 to 2000 | 1340 | 20.7 | 34.3 | 2.33 | 131 | 7.3 | 1.4 | 242 | 3.45 | relatively high | relatively long | –

Source: patent US20240391923A1, “METHIONINE ADENOSYLTRANSFERASE 2A INHIBITOR FOR TREATING MTAP DELETION-TYPE CANCER” (SUZHOU GENHOUSE BIO CO., LTD., priority 2022, published 2024)
